Laboratory results published in patent US8906909B2 (Curis, Inc., priority 2009, dated 2014).

How the values were obtained:
[1] = tested on: HDACs (HeLa cell nuclear extracts); test: HDAC enzymatic activity, Biomol Color de Lys system; format: biochemical
How it was run: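 IC50 from sigmoidal dose-response fits of fluorescence (Ex 350–380, Em 440–460 nm). Compounds in DMSO dilution series incubated 1 h at 25 °C with HeLa nuclear extract HDACs and colorimetric substrate, pH 8.0 Tris/Cl buffer with NaCl, KCl, MgCl2, before developer termination.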

HCT-118 cells = test: Cell proliferation assay Method A (ATPlite), HCT-118; format: cell-based; conditions: 72 hours, read-out: antiproliferative activity IC50, HCT-118
Description: (§1) Cancer cell lines were plated at 5,000 to 10,000 per well in 96-well flat bottomed plates with various concentration of compounds. The cells were incubated with compounds for 72 hours in the presence of 0.5% of fetal bovine serum. Growth inhibition was accessed by adenosine triphosphate (ATP) content assay using Perkin Elmer ATPlite kit. ATPlite is an ATP monitoring system based on firefly luciferase. Briefly, 25 μl of mammalian cell lysis solution was added to 50 μl of phenol red-free culture medium per well to lyse the cells and stabilize the ATP. 25 μl of substrate solution was then added to the well and subsequently the luminescence was measured.

BT-474 cells = test: Cell proliferation assay Method A (ATPlite), BT-474; format: cell-based; conditions: Homo sapiens, 72 hours, read-out: antiproliferative activity IC50, BT-474
Description: as §1

Sk-Mel-28 cells = test: Cell proliferation assay Method A (ATPlite), Sk-Mel-28; format: cell-based; conditions: Homo sapiens, 72 hours, read-out: antiproliferative activity IC50, Sk-Mel-28
Description: as §1

H1993 cells = test: Cell proliferation assay Method A (ATPlite), H1993; format: cell-based; conditions: Homo sapiens, NCI-H1993, 72 hours, read-out: antiproliferative activity IC50, H1993
Description: as §1

SMILES | IC50 [1] [nM] | IC50 (HCT-118 cells) [nM] | IC50 (BT-474 cells) [nM] | IC50 (Sk-Mel-28 cells) [nM] | IC50 (H1993 cells) [nM] | melting point [°C]
O=C(NO)c1cnc(NCc2cc3nc(-c4cccc5[nH]ncc45)nc(N4CCOCC4)c3s2)nc1 [Compound 53, 2-((2-(1H-indazol-4-yl)-4-morpholinothieno[3,2-d]pyrimidin-6-yl)methylamino)-N-hydroxypyrimidine-5-carboxamide] | < 100 | 100 to 1000 | < 100 | 100 to 1000 | 100 to 1000 | 234 to 237
CN(Cc1cc2nc(-c3cc(F)cc4[nH]ncc34)nc(N3CCOCC3)c2s1)c1ncc(C(=O)NO)cn1 [Compound 69, 2-(((2-(6-fluoro-1H-indazol-4-yl)-4-morpholinothieno[3,2-d]pyrimidin-6-yl)methyl)(methyl)amino)-N-hydroxypyrimidine-5-carboxamide] | < 100 | < 100 | < 100 | < 100 | < 100 | 215 to 217
CN(Cc1cc2nc(-c3cccc4[nH]ncc34)nc(N3CCOCC3)c2s1)c1ncc(/C=C/C(=O)NO)cn1 [Compound 75] | 100 to 1000 | 100 to 1000 | 100 to 1000 | 100 to 1000 | 100 to 1000 | –
O=C(NO)c1ccc(NCc2cc3nc(-c4cccc5[nH]ncc45)nc(N4CCOCC4)c3s2)nc1 [Compound 76, 6-((2-(1H-indazol-4-yl)-4-morpholinothieno[3,2-d]pyrimidin-6-yl)methylamino)-N-hydroxynicotinamide] | < 100 | 100 to 1000 | 100 to 1000 | 100 to 1000 | 100 to 1000 | 218 to 220
O=C(NO)c1cnc(N(CCO)Cc2cc3nc(-c4cccc5[nH]ncc45)nc(N4CCOCC4)c3s2)nc1 [Compound 86, 2-(((2-(1H-indazol-4-yl)-4-morpholinothieno[3,2-d]pyrimidin-6-yl)methyl)(2-hydroxyethyl)amino)-N-hydroxypyrimidine-5-carboxamide] | < 100 | 100 to 1000 | 100 to 1000 | 1000 to 10000 | – | 190 to 194
CC(=O)OCCN(Cc1cc2nc(-c3cccc4[nH]ncc34)nc(N3CCOCC3)c2s1)c1ncc(C(=O)NO)cn1 [Compound 87] | < 100 | 100 to 1000 | 1000 to 10000 | 100 to 1000 | 1000 to 10000 | –
COCCN(Cc1cc2nc(-c3cccc4[nH]ncc34)nc(N3CCOCC3)c2s1)c1ncc(C(=O)NO)cn1 [Compound 90, 2-(((2-(1H-indazol-4-yl)-4-morpholinothieno[3,2-d]pyrimidin-6-yl)methyl)(2-methoxyethyl)amino)-N-hydroxypyrimidine-5-carboxamide] | – | < 100 | 100 to 1000 | – | 1000 to 10000 | –
O=C(NO)c1cnc(N(CCCO)Cc2cc3nc(-c4cccc5[nH]ncc45)nc(N4CCOCC4)c3s2)nc1 [Compound 91] | < 100 | 1000 to 10000 | 1000 to 10000 | – | > 10000 | –
CCN(Cc1cc2nc(-c3cccc4[nH]ncc34)nc(N3CCOCC3)c2s1)c1ncc(C(=O)NO)cn1 [Compound 92] | < 100 | < 100 | < 100 | 100 to 1000 | – | –
N#CCCN(Cc1cc2nc(-c3cccc4[nH]ncc34)nc(N3CCOCC3)c2s1)c1ncc(C(=O)NO)cn1 [Compound 99] | < 100 | > 10000 | 100 to 1000 | 100 to 1000 | > 10000 | –
CN(Cc1cc2nc(-c3cccnc3)nc(N3CCOCC3)c2s1)c1ncc(C(=O)NO)cn1 [Compound 109, N-hydroxy-2-(methyl((4-morpholino-2-(pyridin-3-yl)thieno[3,2-d]pyrimidin-6-yl)methyl)amino)pyrimidine-5-carboxamide] | < 100 | < 100 | < 100 | – | < 100 | 160 to 164
CN(Cc1cc2nc(-c3ccc(N)c(O)c3)nc(N3CCOCC3)c2s1)c1ncc(C(=O)NO)cn1 [Compound 279, 2-(((2-(4-Amino-3-hydroxyphenyl)-4-morpholinothieno[3,2-d]pyrimidin-6-yl)methyl)(methyl)amino)-N-hydroxypyrimidine-5-carboxamide] | < 100 | – | – | – | – | 214 to 218
CN(Cc1cc2nc(-c3ccc(N)c(C#N)c3)nc(N3CCOCC3)c2s1)c1ncc(C(=O)NO)cn1 [Compound 280, 2-(((2-(4-Amino-3-cyanophenyl)-4-morpholinothieno[3,2-d]pyrimidin-6-yl)methyl)(methyl)amino)-N-hydroxypyrimidine-5-carboxamide] | < 100 | – | – | – | – | 237 to 240
CC(=O)c1cc(-c2nc(N3CCOCC3)c3sc(CN(C)c4ncc(C(=O)NO)cn4)cc3n2)ccc1N [Compound 281, 2-{[2-(3-Acetyl-4-amino-phenyl)-4-morpholin-4-yl-thieno[3,2-d]pyrimidin-6-ylmethyl]-methyl-amino}-pyrimidine-5-carboxylic acid hydroxyamide] | < 100 | – | – | – | – | 156 to 158
CN(Cc1cc2nc(-c3cc(F)c(N)c(F)c3)nc(N3CCOCC3)c2s1)c1ncc(C(=O)NO)cn1 [Compound 282, 2-(((2-(4-Amino-3,5-difluorophenyl)-4-morpholinothieno[3,2-d]pyrimidin-6-yl)methyl)(methyl)amino)-N-hydroxypyrimidine-5-carboxamide] | < 100 | – | – | – | – | 190 to 193
CN(Cc1cc2nc(-c3ccc(N)c(CO)c3)nc(N3CCOCC3)c2s1)c1ncc(C(=O)NO)cn1 [Compound 285, 2-(((2-(4-Amino-3-(hydroxymethyl)phenyl)-4-morpholinothieno[3,2-d]pyrimidin-6-yl)methyl)(methyl)amino)-N-hydroxypyrimidine-5-carboxamide] | < 100 | – | – | – | – | 195 to 200
CN(Cc1cc2nc(-c3cccc(SCCO)c3)nc(N3CCOCC3)c2s1)c1ncc(C(=O)NO)cn1 [Compound 290, N-Hydroxy-2-(((2-(3-(2-hydroxyethylthio)phenyl)-4-morpholinothieno[3,2-d]pyrimidin-6-yl)methyl)(methyl)amino)pyrimidine-5-carboxamide] | < 100 | – | – | – | – | 188 to 192
CC(O)c1ccc(F)c(-c2nc(N3CCOCC3)c3sc(CN(C)c4ncc(C(=O)NO)cn4)cc3n2)c1 (stereo not shown) [Compound 295, 2-(((2-(2-Fluoro-5-(1-hydroxyethyl)phenyl)-4-morpholinothieno[3,2-d]pyrimidin-6-yl)methyl)(methyl)amino)-N-hydroxypyrimidine-5-carboxamide] | < 100 | – | – | – | – | 230 to 235
C[C@@H](O)c1cccc(-c2nc(N3CCOCC3)c3sc(CN(C)c4ncc(C(=O)NO)cn4)cc3n2)c1 [Compound 297, (R)—N-Hydroxy-2-(((2-(3-(1-hydroxyethyl)phenyl)-4-morpholinothieno[3,2-d]pyrimidin-6-yl)methyl)(methyl)amino)pyrimidine-5-carboxamide] | < 100 | – | – | – | – | 169 to 173
Nc1ccc(-c2nc(N3CCOCC3)c3sc(C(=O)NCC4CCN(c5ncc(C(=O)NO)cn5)CC4)cc3n2)cc1 [Compound 307, 2-(4-Aminophenyl)-N-((1-(5-(hydroxycarbamoyl)pyrimidin-2-yl)piperidin-4-yl)methyl)-4-morpholinothieno[3,2-d]pyrimidine-6-carboxamide] | < 100 | – | – | – | – | 232 to 238
CNc1ccc(-c2nc(N3CCOCC3)c3sc(S(=O)(=O)NCC4CCN(c5ncc(C(=O)NO)cn5)CC4)cc3n2)cn1 [Compound 310, N-Hydroxy-2-(4-((2-(6-(methylamino)pyridin-3-yl)-4-morpholinothieno[3,2-d]pyrimidine-6-sulfonamido)methyl)piperidin-1-yl)pyrimidine-5-carboxamide] | < 100 | – | – | – | – | 190 to 197
CN(Cc1cc2nc(-c3ccc4[nH]c(C(F)(F)F)nc4c3)nc(N3CCOCC3)c2s1)c1ncc(C(=O)NO)cn1 [Compound 318] | < 100 | – | – | – | – | > 300
CS(=O)(=O)N1CCN(Cc2cc3nc(-c4ccc(OCCCCC(=O)NO)cc4)nc(N4CCOCC4)c3s2)CC1 [Compound 319, N-Hydroxy-5-(4-(6-((4-(methylsulfonyl)piperazin-1-yl)methyl)-4-morpholinothieno[3,2-d]pyrimidin-2-yl)phenoxy)pentanamide] | 100 to 1000 | – | – | – | – | 140 to 144
CS(=O)(=O)N1CCN(Cc2cc3nc(-c4ccc(OCCCCCC(=O)NO)cc4)nc(N4CCOCC4)c3s2)CC1 [Compound 320, N-Hydroxy-6-(4-(6-((4-(methylsulfonyl)piperazin-1-yl)methyl)-4-morpholinothieno[3,2-d]pyrimidin-2-yl)phenoxy)hexanamide] | 100 to 1000 | – | – | – | – | 140 to 142
CS(=O)(=O)N1CCN(Cc2cc3nc(-c4ccc(OCCCCCCC(=O)NO)cc4)nc(N4CCOCC4)c3s2)CC1 [Compound 321, N-Hydroxy-7-(4-(6-((4-(methylsulfonyl)piperazin-1-yl)methyl)-4-morpholinothieno[3,2-d]pyrimidin-2-yl)phenoxy)heptanamide] | 100 to 1000 | – | – | – | – | 143 to 145
